Data reported in patent US11352315B2, “Compositions and methods comprising a triaryl polyamine” (Curza Global, LLC, priority 2017, dated 2022).
≈ marks a conversion by molar mass, not a printed value.

Assays:
MRSA [1] = assay: MBEC analysis, MBEC Inoculation Tray (column headed MBC); assay type: cell-based; conditions: Staphylococcus aureus, 24 hours
Text: (§1) To determine the MBEC of each polyamine compound, the MBEC Inoculation Tray by Innovotech, formerly known as the Calgary biofilm device, was used. Within this device, biofilms grow on the surface of polystyrene pegs, 96 of which are attached to a lid. These pegs are inserted into a flat bottom 96-well plate. In this instance, the MBEC of a molecule was defined as the concentration of compound (in μg/mL) required to reduce 10^5 or 10^6 CFU/peg (biofilm levels varied by isolate) to 10^2 CFU/peg in a 24-hour period.
(§2) Following the manufacturer's guidelines, biofilms were grown on the surface of each peg by first making a 0.5 McFarland of each isolate. The 0.5 McFarland was diluted 1:100 in CAMHB. Into each well of a flat bottom 96-well plate, 150 μL of broth were pipetted. The plate was shaken at 100 rpm for 24 hours (P. aeruginosa and A. baumannii) or 48 hours (MRSA). The pegs were then placed into a separate flat bottom 96-well plate for 10 seconds with 200 μL of phosphate buffered saline (PBS) in each well to remove nonadherent cells. The lid was then placed into a 96-well plate that contained varying concentrations of antimicrobial with 200 μL per well. The plate was incubated for 24 hours at 37° C. after which time 100 μL of broth were plated on TSA. TSA plates were incubated 24 hours at 37° C. and the number of CFU counted to calculate the CFU/peg. In this instance, the MBEC was defined as the concentration of antimicrobial required to reduce 10^5 or 10^6 CFU/peg to 10^2 CFU/peg in a 24 hour period.

P. aeruginosa [2] = assay: as above; assay type: cell-based; conditions: Pseudomonas aeruginosa, 24 hours
Text: as §1, §2

MRSA [3] = assay: MIC analysis; assay type: cell-based; conditions: Staphylococcus aureus, 24 hours
Protocol: (§3) A clinical strain of MRSA, isolated from a patient who underwent arthroscopic knee surgery and characterized by ARUP Laboratories, Salt Lake City, Utah, was used for this study in addition to Pseudomonas aeruginosa ATCC 27853 and Alcanivorax borkumensis ATCC 700651. P. aeruginosa was resuspended in BHI broth, grown overnight at 37° C. and transferred to fresh BHI with 30% glycerol for storage at −80° C. The MRSA isolate was likewise stored in BHI with 30% glycerol at −80° C. […] Before performing MIC analysis and biofilm experiments, the frozen stocks of MRSA and P. aeruginosa were streaked onto Columbia blood agar plates and grown overnight at 37° C. A. borkumensis ATCC 700651 was resuspended from a lyophilized pellet into marine broth, grown overnight at 30° C. and passaged on marine agar plates prior to experimentation.
(§4) To determine the MIC of polyamine compounds, the protocol described herein was used.
(§5) In brief, a 0.5 McFarland of each bacterial isolate was made. A 0.5 McFarland is a measure of turbidity in a liquid sample that contains approximately 1×10^^8 CFU/mL. The 0.5 McFarland standard was diluted in cation adjusted Mueller Hinton Broth (CAMHB), and 50 μL of broth were added to a well of a 96-well plate. In addition, 50 μL of CAMHB that contained a desired concentration of antimicrobial were also added to the well for a final volume of 100 μL and a final concentration of approximately 5×10^4 CFU/well (which equated to approximately 5×10^5 CFU/mL). Each well contained a desired amount of polyamine compound in order to experimentally determine the MIC. Each 96-well plate was incubated at 37° C. for 24 hours. The contents of each well were plated on tryptic soy agar (TSA). TSA plates were incubated for 37° C. for 24 hours after which the number of CFU were counted and used to calculate the CFU/mL that remained after exposure to varying concentrations of compound. This procedure was repeated n=8 times for each concentration of antimicrobial.

P. aeruginosa [4] = assay: MIC analysis; assay type: cell-based; conditions: Pseudomonas aeruginosa, 24 hours
Protocol: as §3, §4, §5

E. coli [5] = assay: MBEC analysis, MBEC Inoculation Tray (column headed MBC); assay type: cell-based; conditions: Escherichia coli, 24 hours
E. coli [6] = assay: MIC analysis; assay type: cell-based; conditions: Escherichia coli, 24 hours
Protocol: as §4, §5

MRSA [7] = assay: EBEC analysis, high number biofilms on PEEK membranes; assay type: cell-based, Staphylococcus aureus; conditions: 24 hours
Protocol: (§6) To determine the efficacy of polyamine compounds against high number biofilms, biofilms were grown on the surface of polyetheretherketone (PEEK) membranes using a membrane biofilm reactor. This reactor was similar to the CDC biofilm reactor, but rather than growing biofilms on coupon surfaces, the reactor was modified to hold PEEK membranes. In short, to grow biofilms within this system, 500 mL of brain heart infusion (BHI) broth were inoculated with 1 mL of a 0.5 McFarland. The reactor was placed on a hot plate set at 34° C. and the bacteria were grown under batch conditions for 24 hours.
(§7) A solution of 10% BHI was then flowed through the reactor at a rate of 6.94 mL/min for an additional 24 hours. PEEK membranes were then removed and placed into 2 mL of CAMHB that contained a desired concentration of polyamine compound or antibiotic. The EBEC was defined as the concentration of antimicrobial required to reduce a biofilm from approximately 10^9 CFU/PEEK membrane to approximately 10^2 CFU/PEEK membrane in a 24-hour period.

A. baumannii [8] = assay: MBEC analysis, MBEC Inoculation Tray (column headed MBC); assay type: cell-based; conditions: Acinetobacter baumannii, 24 hours
Text: as §1, §2

A. baumannii [9] = assay: MIC analysis; assay type: cell-based; conditions: Acinetobacter baumannii, 24 hours
Protocol: as §4, §5

A. baumannii [10] = assay: EBEC analysis, high number biofilms on PEEK membranes; assay type: cell-based, Acinetobacter baumannii; conditions: 24 hours
Protocol: as §6, §7

Row | SMILES | MBC (MRSA [1]) [µg/mL] | MBC (P. aeruginosa [2]) [µg/mL] | MIC (MRSA [3]) [µg/mL] | MIC (P. aeruginosa [4]) [µg/mL] | MBC (E. coli [5]) [µg/mL] | MIC (E. coli [6]) [µg/mL] | EBEC (MRSA [7]) [µg/mL] | MBC (A. baumannii [8]) [µg/mL] | MIC (A. baumannii [9]) [µg/mL] | EBEC (A. baumannii [10]) [µg/mL]
1 | CC(C)CNCCCNCCCNCc1cccc(-c2ccccc2-c2cccc(CNCCCNCCCNCC(C)C)c2)c1 [CZ-1-152] | 16 (≈ 25.4 µM) | 32 (≈ 50.9 µM) | 16 (≈ 25.4 µM) | 32 (≈ 50.9 µM) | – | – | – | – | – | –
2 | CC(C)CNCCCNCCCNCc1cccc(-c2ccc(-c3cccc(CNCCCNCCCNCC(C)C)c3)c(CNCCCNCCCNCC(C)C)c2)c1 [CZ-1-153, N^1,N^1′,N^1″-([1,1′:4′,1″-terphenyl]-2′,3,3″-triyltris(methylene))tris(N^3-(3-(isobutylamino)propyl)propane-1,3-diamine)] | 16 (≈ 19.3 µM) | > 64 | 16 (≈ 19.3 µM) | > 64 | – | – | – | – | – | –
3 | CC(C)CNCCCNCCCNCc1ccc(-c2ccccc2-c2ccc(CNCCCNCCCNCC(C)C)cc2)cc1 [CZ-1-154, N^1,N^1′-([1,1′:2′,1″-terphenyl]-4,4″-diylbis(methylene))bis(N^3-(3-(isobutylamino)propyl)propane-1,3-diamine)] | 4 (≈ 6.36 µM) | > 32 | 4 (≈ 6.36 µM) | 32 (≈ 50.9 µM) | 16 (≈ 25.4 µM) | 16 (≈ 25.4 µM) | – | – | – | –
4 | CCCCCCNCCCNCCCNCc1cccc(-c2ccccc2-c2cccc(CNCCCNCCCNCCCCCC)c2)c1 [CZ-1-155, N^1,N^1′-([1,1′:2′,1″-terphenyl]-3,3″-diylbis(methylene))bis(N^3-(3-(hexylamino)propyl)propane-1,3-diamine)] | 16 (≈ 23.4 µM) | 16 (≈ 23.4 µM) | 16 (≈ 23.4 µM) | 16 (≈ 23.4 µM) | – | – | – | – | – | –
5 | CC(C)CNCCCNCCCNCc1ccc(-c2cccc(-c3ccc(CNCCCNCCCNCC(C)C)cc3)c2)cc1 [CZ-1-157, N^1,N^1′-([1,1′:3′,1″-terphenyl]-4,4″-diylbis(methylene))bis(N^3-(3-(isobutylamino)propyl)propane-1,3-diamine)] | 4 (≈ 6.36 µM) | 16 (≈ 25.4 µM) | 4 (≈ 6.36 µM) | 16 (≈ 25.4 µM) | – | – | >750 | – | – | –
6 | CCCCC(CC)CNCCCNCCCNCc1ccc(-c2cccc(-c3ccc(CNCCCNCCCNCC(CC)CCCC)cc3)c2)cc1 (stereo not drawn) [CZ-1-161, N^1,N^1′-([1,1′:3′,1″-terphenyl]-4,4″-diylbis(methylene))bis(N^3-(3-((2-ethylhexyl)amino)propyl)propane-1,3-diamine)] | 2 (≈ 2.7 µM) | 16 (≈ 21.6 µM) | 1 (≈ 1.35 µM) | 16 (≈ 21.6 µM) | 1 (≈ 1.35 µM) | 1 (≈ 1.35 µM) | – | 4 (≈ 5.4 µM) | 4 (≈ 5.4 µM) | –
7 | CCC(CC)CNCCCNCCCNCc1ccc(-c2cccc(-c3ccc(CNCCCNCCCNCC(CC)CC)cc3)c2)cc1 [CZ-1-164, N^1,N^1′-([1,1′:3′,1″-terphenyl]-4,4″-diylbis(methylene))bis(N^3-(3-((2-ethylbutyl)amino)propyl)propane-1,3-diamine)] | 1 (≈ 1.46 µM) | 16 (≈ 23.4 µM) | 1 (≈ 1.46 µM) | 16 (≈ 23.4 µM) | – | – | – | – | – | –
8 | CCC(C)CNCCCNCCCNCc1ccc(-c2cccc(-c3ccc(CNCCCNCCCNCC(C)CC)cc3)c2)cc1 (stereo not drawn) [CZ-1-166, N^1,N^1′-([1,1′:3′,1″-terphenyl]-4,4″-diylbis(methylene))bis(N^3-(3-((2-methylbutyl)amino)propyl)propane-1,3-diamine)] | 1 (≈ 1.52 µM) | 8 (≈ 12.2 µM) | 1 (≈ 1.52 µM) | 4 (≈ 6.09 µM) | – | – | – | – | – | –
9 | CC(C)CCNCCCNCCCNCc1ccc(-c2ccnc(-c3ccc(CNCCCNCCCNCCC(C)C)cc3)n2)cc1 [CZ-1-174, N^1,N^1′-((pyrimidine-2,4-diylbis(4,1-phenylene))bis(methylene))bis(N^3-(3-(isopentylamino)propyl)propane-1,3-diamine)] | 16 (≈ 24.3 µM) | > 64 | 8 (≈ 12.1 µM) | 64 (≈ 97.1 µM) | – | – | – | – | – | –
10 | CC(C)CNCCCNCCCNCc1ccc(-c2cc(-c3ccc(CNCCCNCCCNCC(C)C)cc3)ncn2)cc1 [CZ-1-176, N^1,N^1′-((pyrimidine-4,6-diylbis(4,1-phenylene))bis(methylene))bis(N^3-(3-(isobutylamino)propyl)propane-1,3-diamine)] | 32 (≈ 50.7 µM) | 64 (≈ 101 µM) | 32 (≈ 50.7 µM) | 64 (≈ 101 µM) | – | – | – | – | – | –
11 | CC(C)CNCCCNCCCNCc1ccc(-c2cc(-c3ccc(CNCCCNCCCNCC(C)C)cc3)cc(C(C)(C)C)c2)cc1 [CZ-1-177, N^1,N^1′-((5′-(tert-butyl)-[1,1′:3′,1″-terphenyl]-4,4″-diyl)bis(methylene))bis(N^3-(3-(isobutylamino)propyl)propane-1,3-diamine)] | 1 (≈ 1.46 µM) | > 4 | 1 (≈ 1.46 µM) | 1 (≈ 1.46 µM) | – | – | 250 | 16 (≈ 23.4 µM) | 8 (≈ 11.7 µM) | 500
12 | CCC(C)CNCCCNCCCNCc1ccc(-c2cc(-c3ccc(CNCCCNCCCNCC(C)CC)cc3)cc(C(C)(C)C)c2)cc1 (stereo not drawn) [CZ-1-178, N^1,N^1′-((5′-(tert-butyl)-[1,1′:3′,1″-terphenyl]-4,4″-diyl)bis(methylene))bis(N^3-(3-((2-methylbutyl)amino)propyl)propane-1,3-diamine)] | 1 (≈ 1.4 µM) | > 4 | 1 (≈ 1.4 µM) | 1 (≈ 1.4 µM) | – | – | <250 | 4 (≈ 5.61 µM) | 2 (≈ 2.8 µM) | 500
13 | CCC(CC)CNCCCNCCCNCc1cccc(-c2cc(-c3cccc(CNCCCNCCCNCC(CC)CC)c3)cc(C(C)(C)C)c2)c1 [CZ-1-183, N^1,N^1′-((5′-(tert-butyl)-[1,1′:3′,1″-terphenyl]-3,3″-diyl)bis(methylene))bis(N^3-(3-((2-ethylbutyl)amino)propyl)propane-1,3-diamine)] | – | – | 0.5 (≈ 0.675 µM) | 8 (≈ 10.8 µM) | – | – | – | – | 16 (≈ 21.6 µM) | –
14 | CC(C)CNCCCNCCCNCc1cccc(-c2cc(-c3cccc(CNCCCNCCCNCC(C)C)c3)cc(C(C)(C)C)c2)c1 [CZ-1-184, N^1,N^1′-((5′-(tert-butyl)-[1,1′:3′,1″-terphenyl]-3,3″-diyl)bis(methylene))bis(N^3-(3-(isobutylamino)propyl)propane-1,3-diamine)] | – | – | 0.5 (≈ 0.73 µM) | 16 (≈ 23.4 µM) | – | – | – | – | 64 (≈ 93.4 µM) | –
